Experimental data as given in patent US4853403A, “3-phenylthiomethylstyrene derivative, process for preparing the same, and antiallergic agent and tyrosinekinase inhibiting agent containing the same” (Kanegafuchi Kagaku Kogyo Kabushiki Kaisha, priority 1985, dated 1989).
Read-outs that look alike come from different tables or passages of the source.

Tests used:
[1] = biological target: T1, epidermal growth factor acceptor-tyrosinekinase complex (Homo sapiens, UniProt P00533); experiment: Tyrosinekinase inhibitory activity (A-431 membrane specimen, EGF-stimulated, [γ-32P]ATP); format: biochemical, human (A-431 cell line derived from human cancerous cell); conditions: read-out: Inhibition rate (tyrosinekinase)
T1 construct: endogenous in cells; host or cells: A-431 (membrane specimen, not solubilized)
T1 sequence (P00533 25-1210): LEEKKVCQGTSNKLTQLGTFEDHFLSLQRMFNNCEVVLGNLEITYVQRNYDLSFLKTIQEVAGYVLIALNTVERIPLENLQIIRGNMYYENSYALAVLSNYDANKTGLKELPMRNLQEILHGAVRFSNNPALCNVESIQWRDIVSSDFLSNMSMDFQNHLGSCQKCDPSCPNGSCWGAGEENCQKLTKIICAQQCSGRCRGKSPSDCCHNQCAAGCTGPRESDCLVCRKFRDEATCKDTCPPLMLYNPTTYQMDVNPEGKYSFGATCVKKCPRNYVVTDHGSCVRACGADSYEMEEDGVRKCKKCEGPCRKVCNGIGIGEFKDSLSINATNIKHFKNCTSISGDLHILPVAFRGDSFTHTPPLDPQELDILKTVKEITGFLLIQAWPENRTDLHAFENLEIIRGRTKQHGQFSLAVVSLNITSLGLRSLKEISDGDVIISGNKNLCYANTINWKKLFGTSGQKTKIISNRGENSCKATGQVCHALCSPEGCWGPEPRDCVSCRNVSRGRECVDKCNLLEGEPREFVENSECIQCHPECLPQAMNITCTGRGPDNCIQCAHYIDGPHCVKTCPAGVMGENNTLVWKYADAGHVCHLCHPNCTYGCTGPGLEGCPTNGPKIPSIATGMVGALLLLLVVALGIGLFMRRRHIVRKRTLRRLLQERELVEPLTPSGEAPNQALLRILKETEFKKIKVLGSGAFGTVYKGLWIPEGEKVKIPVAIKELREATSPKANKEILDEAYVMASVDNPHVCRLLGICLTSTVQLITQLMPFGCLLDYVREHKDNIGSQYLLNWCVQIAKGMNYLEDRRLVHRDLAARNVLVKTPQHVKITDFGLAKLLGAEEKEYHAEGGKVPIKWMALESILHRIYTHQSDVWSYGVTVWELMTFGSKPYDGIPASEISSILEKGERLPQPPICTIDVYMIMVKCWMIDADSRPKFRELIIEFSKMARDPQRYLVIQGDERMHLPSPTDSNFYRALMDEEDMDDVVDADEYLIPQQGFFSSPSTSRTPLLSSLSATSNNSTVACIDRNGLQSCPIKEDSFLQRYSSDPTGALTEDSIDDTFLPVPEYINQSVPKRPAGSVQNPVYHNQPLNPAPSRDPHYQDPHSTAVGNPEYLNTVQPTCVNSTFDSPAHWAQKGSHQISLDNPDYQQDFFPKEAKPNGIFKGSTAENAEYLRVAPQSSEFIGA
T1 sequence (P01132 977-1029 partner limits assumed): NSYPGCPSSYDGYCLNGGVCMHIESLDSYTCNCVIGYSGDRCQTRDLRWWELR
Method: Tyrosinekinase inhibitory activity of the compound of the present invention was measured by employing a method for measuring tyrosinekinase activity by G. Carpentor or by S. Cohen et al. [J. Biol. Chem., 254, 4884 (1979); J. Biol. Chem., 257, 1523 (1982)].
Cell line A-431 derived from human cancerous cell was cultured at 37° C. under the condition of 5% CO2 in Dulbecco's modified Eagle medium (made by DAINIPPON PHARMACEUTICAL CO., LTD.) containing 10% fetal bovine serum, 50 μg/ml of streptomycin, 50 IU/ml of penicillin G and 50 μg/ml of canamycin. The obtained cells were treated according to the above Cohen or Graham et al. to give membrane specimen containing epidermal growth factor acceptor-tyrosinekinase complex (hereinafter referred to as "membrane specimen"). The membrane specimen was employed in the following measurement without solubilization.
Sample dissolved in dimethylsulfoxide was added to a mixture of 20 mM of N-2-hydroxyethylpyperadino-N'-2-ethanesulfonate buffer (pH 7.4), 1 mM of MnCl2, 7.5 μg of bovine serum albumin and the membrane specimen (10 μg as protein). After incubation at 0° C. for 5 minutes, 100 ng of epidermal growth factor (hereinafter referred to as "EGF" was added and the mixture was further incubated at 0° C. for 15 minutes. [γ-^32 P]ATP (3000 Ci/mmol, 0.1 μCi) was added to make final volume of 70 μl. After incubation at 0° C. for 15 minutes, 50 μl of the reaction solution was soaked into Wattman 3 MM filter paper and immediately the reaction was stopped by 10% trichloroacetic acid-10 mM sodium pyrophosphate aqueous solution. The filter paper was sufficiently washed with the same solution and then washed with ethanol and dried. Radioactivity present in the filter paper was measured by liquid scintillation counter (A). Similarly, radioactivity was measured in case of the reaction without EGF (B), the reaction without the sample (C), and the reaction without both EGF and the sample (D) as a control.
Tyrosinekinase inhibition rate (%) was calculated by the following equation. [formula]

[2] = test system: antigen-induced anaphylactic shock death; experiment: Protective effect against anaphylactic shock in actively sensitized guinea pigs; format: in vivo, guinea pig (male); conditions: Cavia porcellus, oral, 30 minutes before antigen inhalation, survival 90 minutes or more, read-out: Protecting Effect (Number of test animal survivied/Number of test animal) (converted)
Method: [III] Protective effect against anaphylactic shock in actively sensitized guinea pigs
Antigen-induced anaphylactic shock death was observed according to John P. Devlin [Pulmonary and Antiallergic Drugs, John Wiley & Sons, 155 (1985)].
Each 100 mg/kg of ovalbumin dissolved in physiological saline was injected into peritoneal cavity and into gluteus of male guinea pigs weighing 250 to 350 g. 3 Days later, the animals were further injected intraperitoneally with ovalbumin (100 mg/kg). Those animals were employed for testing 3 to 4 weeks after first sensitization. Actively sensitized guinea pigs were pretreated subcutaneously with pyrilamine (1 mg/kg, 30 min.) to suppress histamine-dependent response and with propanolol ([…], 10 min.) to enhance the response induced by other than histamine before the antigen.
The animal was placed in a desiccator with a capacity of about 5 l and 0.5% aqueous solution of ovalbumin was inhaled with ultrasonic type nebulizer for five minutes. Anaphylactic shock death was observed and the animals survived for 90 minutes or more after antigen were estimated to be protected. The compounds of the present invention and antiasmatic agent were administered orally 30 minutes before the antigen inhalation. The control received vehicle alone similarly.

[3] = test system: homologous passive cutaneous anaphylaxis (PCA); experiment: Inhibitory activity against homologous passive cutaneous anaphylaxis (PCA) in rats; format: in vivo, rat (male Wistar); conditions: 300 mg/kg, oral, 30 minutes before the antigen (tranilast)
Method: [II]Inhibitory activity against homologous passive cutaneous anaphylaxis (PCA) in rats
Antiserum was prepared according to I. Mota [Immunology, 7, 681(1964)] and the PCA reaction was conducted according to Maruyama et al. [Nippon yakurigakkaishi, 74, 179(1978)].
(1) Preparation of antiserum
An ovalbumin solution (2 mg/ml) was injected intramuscularly into both thighs of male Wistar rats weighing 200 to 260 g in a volume of 0.5 ml/100 g body weight, and pertussis vaccine (Bordetella pertussis, 2×10^10 /ml, Chibaken Kessei Kenkyujo) was intraperitoneally administered at 1 ml/rat. Twelve days later, blood was taken from posterior aorta under ether anesthesia and antiserum was stored at -80° C.
Group of 4 male Wistar rats weighing 180 to 210 g were employed. Back of the animals was shaved and each 0.05 ml of antiserum (1:32 dilution) was injected intradermally at four sites on the back. After 48 hours, 1 ml of a mixture of ovalbumin (1 mg/ml) and Evans blue (5 mg/ml) was injected intravenously into the tail. 30 Minutes later, the animals were killed under ether anesthesia. The blue-dyed area (mm^2) formed was measured and an inhibition rate(%) was calculated as compared with control.
Test compound suspended in a 2.5% acacia containing 0.2% Tween 80 was administered orally in a volume of 0.5 ml/100 g body weight 1 hour before the antigen. Tranilast was administered orally 30 minutes before the antigen.

Compound | inhibition at 10 µM ([1]; 10 μM) [%] | responders at 100 mg/kg [2] [%] | Inhibition rate (PCA reaction, blue-dyed area) [3] [%] | responders at 30 mg/kg [2] [%] | inhibition at 10 µM [1] [%]
CCOc1cc(C=C2C(=O)NN(c3ccccc3)C2=O)cc(CSc2ccc(Cl)cc2)c1O [XXXVI] | 91 | 25 | – | – | –
COc1ccc(/C=C/C(=O)Nc2ccccc2C(=O)O)cc1OC [tranilast, reference compound] | – | 0 | 40 | – | –
CCOc1cc(C=C(C#N)C(N)=O)cc(CSc2ccc(OC)cc2)c1O [II] | 42 | – | – | 75 | –
CCOc1cc(C=C(C#N)C(N)=O)cc(CSc2cccc(Cl)c2)c1O [XI] | 54 | 25 | – | – | –
CCOc1cc(C=C2CCNC2=O)cc(CSc2ccccc2)c1OC(=O)c1ccccc1 [XXX] | 32 | – | – | 50 | –
CCOc1cc(C=C(C#N)C(N)=O)cc(CSc2ccc(C(C)(C)C)cc2)c1O [XVIII] | 37 | – | – | 75 | –
CCOc1cc(C=C(C#N)C(N)=O)cc(CSc2ccccc2)c1OC(=O)c1ccccc1 [XVI] | 40 | 25 | – | – | –
CCOc1cc(C=C(C#N)C(N)=O)cc(CSc2c(Cl)cccc2Cl)c1O [X] | 44 | – | – | 75 | –
CCOc1cc(C=C(C#N)C(N)=O)cc(CSc2ccc(C)cc2)c1O [IX] | 58 | – | – | 50 | –
O=C1OCCC1=Cc1cc(O)c(O)c(CSc2ccc([N+](=O)[O-])cc2)c1 [XXVI] | 35 | 25 | – | – | –
CCOc1cc(C=C(C#N)C(N)=O)cc(CSc2ccccc2)c1OC(C)=O [XVII] | 36 | 25 | – | – | –
CCOc1cc(C=C2CCNC2=O)cc(CSc2ccc(OC)cc2)c1OC [XXIX] | 30 | 25 | – | – | –
CCOc1cc(C=C(C#N)C(N)=O)cc(CSc2ccc(Br)cc2)c1O [IV] | 74 | 25 | – | – | –
COc1cc(C=C(C#N)C(N)=O)cc(CSc2ccccc2)c1O [XII] | – | – | – | 50 | 86
CCOc1cc(C=C2CCOC2=O)cc(CSc2ccc(Cl)c(Cl)c2)c1O [XXV] | 27 | – | – | 75 | –
COc1cc(C=C2C(=O)NN(c3ccccc3)C2=O)cc(CSc2ccccc2)c1O [XXXII] | 100 | 25 | – | – | –
CCOc1cc(C=C(C#N)C(N)=O)cc(CSc2ccc(Cl)c(Cl)c2)c1O [XV] | 69 | – | – | 100 | –
CCOc1cc(C=C(C#N)C(N)=O)cc(CSc2ccc(O)cc2)c1O [XX] | 91 | 25 | – | – | –
